Results published in publication PMC2941879 (Bioorganic & medicinal chemistry, 2010).
Structures can show the parent of a compound that is named as a salt.

Assays:
α2C receptors = settings: read-out: Affinity at α2C receptors; cited from earlier work
cloned hD1 receptors = cloned hD1 receptors (Homo sapiens, UniProt P21728); assay: Cyclic AMP accumulation assay; assay type: cell-based
Sequence of cloned hD1 receptors (P21728 whole entry): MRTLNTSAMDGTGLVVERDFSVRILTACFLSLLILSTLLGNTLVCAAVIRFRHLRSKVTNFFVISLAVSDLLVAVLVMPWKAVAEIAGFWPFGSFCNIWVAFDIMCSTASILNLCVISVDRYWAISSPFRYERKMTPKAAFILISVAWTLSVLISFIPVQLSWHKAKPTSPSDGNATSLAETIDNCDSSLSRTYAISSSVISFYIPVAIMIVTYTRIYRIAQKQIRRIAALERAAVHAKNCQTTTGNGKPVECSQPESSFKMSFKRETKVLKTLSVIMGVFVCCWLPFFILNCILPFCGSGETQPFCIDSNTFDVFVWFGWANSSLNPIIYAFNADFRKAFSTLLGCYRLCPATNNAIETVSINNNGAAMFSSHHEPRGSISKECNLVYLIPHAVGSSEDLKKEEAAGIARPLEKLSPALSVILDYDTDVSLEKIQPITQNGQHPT

SMILES	Ki (α2C receptors)	Agonist character at D1 receptors (cloned hD1 receptors)
Oc1cc2c(cc1O)C1c3ccccc3CNC1CO2 (centres unmarked) [DOX, doxanthrine]	2 nM	–
Oc1ccc2c(c1O)C[C@@H](c1ccccc1)[C@@H]1CCNC[C@@H]21 [compound 3, Trans-5-Phenyl-1,2,3,4,4a,5,6,10b-octahydrobenzo[h]isoquinoline-7,8-diol Hydrobromide]	–	full agonist
